From the NIST ThermoML archive (doi:10.1016/j.fluid.2015.08.008)

How the values were obtained:
[1] = 101.33 kPa, Liquid, Vibrating tube method
[2] = Boiling temperature at pressure P; details: Liquid, distillation unit - dew point temperature

C1CN=C2CCCN2C1 [1,5-diazabicyclo[4.3.0]non-5-ene]
Details	Boiling temperature at pressure P [°C]	mass density [kg/m3]
[1], 293.15 K	–	1037.59
[1], 298.15 K	–	1033.58
[1], 303.15 K	–	1029.56
[1], 308.15 K	–	1025.52
[1], 313.15 K	–	1021.49
[1], 318.15 K	–	1017.4
[1], 323.15 K	–	1013.33
[2], 0.71 kPa	85.69	–
[2], 0.91 kPa	90.86	–
[2], 0.92 kPa	91.46	–
[2], 1.39 kPa	98.20	–
[2], 1.41 kPa	98.90	–
[2], 1.87 kPa	105.99	–
[2], 2.81 kPa	114.1	–
[2], 2.86 kPa	114.66	–
[2], 3.37 kPa	117.81	–
[2], 3.88 kPa	120.18	–
[2], 5.11 kPa	127.00	–
[2], 5.53 kPa	128.91	–
[2], 6.11 kPa	131.70	–
[2], 7.15 kPa	134.78	–
[2], 8.11 kPa	139.00	–
[2], 9.4 kPa	142.40	–
[2], 10.12 kPa	144.50	–
[2], 12.14 kPa	149.60	–

C1CCC2=NCCCN2CC1 [1,8-diaza-7-bicyclo[5.4.0]undecene]
[2]
Details	Boiling temperature at pressure P [°C]
0.51 kPa	102.62
0.71 kPa	110.30
1.01 kPa	116.2
1.31 kPa	122.00
1.51 kPa	124.60
1.71 kPa	127.70
2.01 kPa	130.80
2.31 kPa	133.90
2.51 kPa	136
3.01 kPa	139.72
3.31 kPa	143.00
3.51 kPa	143.80
4.01 kPa	147.87
4.21 kPa	149.07
4.51 kPa	150.98
5.01 kPa	153.77
5.31 kPa	154.70
6.31 kPa	159.30
7.31 kPa	164.1
